Paper PMC6615261, “Repurposing Azithromycin and Rifampicin Against Gram-Negative Pathogens by Combination With Peptidomimetics” (Frontiers in Cellular and Infection Microbiology, 2019)

Tests used:
MDR E. coli ST131 = test: Screening of peptidomimetic-antibiotic combinations (growth / growth inhibition); format: cell-based, Escherichia coli; parameters: key to Growth in combination with RIF / Growth in combination with AZM: Growth (+); growth inhibition (–); conditions: for Growth in combination with AZM: peptidomimetic 0.5 μM + azithromycin 1 μg/mL; for Growth in combination with RIF: peptidomimetic 0.5 μM + rifampicin 0.5 μg/mL; for Potentiation in the screening, rifampicin or azithromycin: 0.5 μM peptidomimetic
Protocol: (§1) Minimal inhibitory concentrations (MICs) of peptidomimetics, antibiotics and their combinations were determined by broth microdilution according to the Clinical Laboratory Standards Institute performance standards (Clinical and Laboratory Standards Institute, [2013]). […] Since rifampicin and azithromycin mainly are used to treat infections with Gram-positive pathogens only CLSI clinical breakpoints were available for such bacteria. […] Potentiation of additional antibiotics by peptidomimetics was determined by using commercial 96-well plates containing varied concentrations of standard antibiotics (COMPAN1F; Trek Diagnostic Systems Inc.). The peptidomimetics were added immediately prior to inoculation with pathogen, and then MICs were determined as above. The MICs of peptidomimetic/antibiotic combinations were determined according to the method above, and the concentration ratios were selected based upon checkerboard results with 2:1 and 1:4 ratio of peptidomimetic with rifampicin or azithromycin, respectively. Minimal bactericidal concentrations (MBCs) were determined by using growth-curve assay plates. MIC plates were prepared as above, and then the plates were incubated at 37°C with continuous shaking. Growth was recorded at 10 min intervals as optical density (OD) at 600 nm during 24 h. At 24 h, for wells without growth, a sample was diluted 10-fold in sterile saline (0.9% sodium chloride) and plated onto MHA, following CLSI guidelines (Clinical and Laboratory Standards Institute, [1999]).

K. pneumoniae ST258 = test: as above; format: cell-based, Klebsiella pneumoniae; parameters: key to Growth in combination with RIF / Growth in combination with AZM: Growth (+); growth inhibition (–); conditions: for Growth in combination with AZM: peptidomimetic 0.5 μM + azithromycin 1 μg/mL; for Growth in combination with RIF: peptidomimetic 0.5 μM + rifampicin 0.5 μg/mL; for Potentiation in the screening, rifampicin or azithromycin: 0.5 μM peptidomimetic
Protocol: as §1

Substance	Growth in combination with AZM (MDR E. coli ST131)	Growth in combination with RIF (MDR E. coli ST131)	Growth in combination with AZM (K. pneumoniae ST258)	Growth in combination with RIF (K. pneumoniae ST258)	Potentiation in the screening, rifampicin or azithromycin (MDR E. coli ST131)	Potentiation in the screening, rifampicin or azithromycin (K. pneumoniae ST258)	Screening result with rifampicin (MDR E. coli ST131; 0.5 μM peptidomimetic + 0.5 μg/mL rifampicin)
Ac-(hArg-βNchx-Lys-βNspe)3-NH2 [Peptidomimetic 8]	+	+	+	+			
G(NLys)W(NLys)2II(NLys)VA(NLys)-NH2 [Peptidomimetic 31]	+	+	+	+			
Ac-[(S)-Aoc]-(Lys-βNPhe)6-NH2 [Peptidomimetic 41]	–	–	+	+			
(NLys)LG(NLys)IW(NLys)I(Nlys)2LF-NH2 [Peptidomimetic 32]	+	+	+	+			
Ac-(Lys-βNspe)6-NH2 [Peptidomimetic 6]	–	–	+	+			
Lau-Dap(Lau)-(Lys-βNspe-hArg-βNspe)3-NH2 [Peptidomimetic 40]	+	+	+	+			
Ac-(hArg-βNPhe)8-NH2 [Peptidomimetic 2]	+	+	+	+			
Cin-(Lys-βNspe-hArg-βNspe)3-NH2 [Peptidomimetic 27]	+	+	+	+	did not exhibit any potentiation activity	did not exhibit any potentiation activity	
Ac-(hArg-βNchx)6-NH2 [Peptidomimetic 7]	+	+	+	+			
Oct-(Lys-βNspe)6-NH2 [Peptidomimetic 35]	+	+	+	+			
(NLys)W(NLys)LF(NLys)2VL(NLys)VLTTG-NH2 [Peptidomimetic 33]	+	+	+	+			
Ac-(hArg-βNspe)7-NH2 [Peptidomimetic 4]	+	+	+	+			
Pam-[(S)-Aoc]-(Lys-βNphe)6-NH2 [Peptidomimetic 11]	+	+	+	+			
R(Tbt)R(hPhe)-NH2 [Peptidomimetic 38]	+	+	+	+			
F5Ph-acetic acid-(5F-Phe)-(Lys-βNspe-hArg-βNspe)3-NH2 [Peptidomimetic 29]	+	+	+	+	did not exhibit any potentiation activity	did not exhibit any potentiation activity	
R(Tbt)R(NPhe) [Peptidomimetic 39]	+	+	+	+			
Ac-(Lys-βNspe-hArg-βNspe)2-NH2 [Peptidomimetic 10]	+	–	+	+			potentiated rifampicin activity
Pam-(Lys-βNspe-hArg-βNspe)2-NH2 [Peptidomimetic 13]	+	+	+	+	did not exhibit any potentiation activity	did not exhibit any potentiation activity	
Pam-(Lys-βNPhe)6-NH2 [Peptidomimetic 36]	+	+	+	+			
Lau-(Lys-βNPhe)6-NH2 [Peptidomimetic 37]	+	–	+	+			
p-CF3-benzoyl-(Lys-Phe)8-NH2 [Peptidomimetic 23]	+	+	+	+			
Pam-(Lys-βNspe)6-NH2 [Peptidomimetic 34]	+	+	+	+			
Ac-(Lys-βNspe)8-NH2 [Peptidomimetic 5]	–	–	+	+			
Ac-(NLys-NPhe)8-NH2 [Peptidomimetic 22]	–	–	+	+			
Ac-(hArg-βNPhe)5-NH2 [Peptidomimetic 3]	+	–	+	+			
